From US20100113276A1, “USE OF N2-PHENYLAMIDINES AS HERBICIDES” (BAYER CROPSCIENCE AG, priority 2007, published 2010)

Assay: log P by HPLC on reversed-phase column (C18), EEC Directive 79/831 Annex V.A8
Assay type: physicochemical
Settings: C18, 40° C.; for log p H3PO4: 0.1% aqueous phosphoric acid / acetonitrile
Procedure: The log P data were determined in accordance with the EEC Directive 79/831 Annex V.A8 by HPLC (High Performance Liquid Chromatography) on a reversed-phase column (C18) using the following methods: […]
Calibration was carried out with the help of unbranched alkan-2-ones (consisting of 3 to 13 or 16 carbon atoms) with known logP values (determination of the logP values via the retention times by means of linear interpolation between two subsequent alkanones).

Structure (SMILES) | log p H3PO4 | log p HCO2H (aqueous formic acid / acetonitrile) | log p neutral | log p acidic (acidic)
Cc1cc(N=CN(C)C)c(Cl)cc1Oc1ccc(Cl)c(C(F)(F)F)c1 [compound 892] | 2.35 | 2.3 | 5.08 | –
CCN(C)C=Nc1cc(C)c(-c2ccc(Cl)c(C(F)(F)F)c2)cc1Cl [compound 928] | – | – | 5.31 | 2.3
Cc1cc(-c2ccc(Cl)cc2)c(F)cc1N=CN(C)C [compound 663] | 2.04 | – | – | –
